Results as given in US20110281869A1, “TETRAHYDROISOQUINOLINES AS ANTIMALARIAL AGENTS” (priority 2008, published 2011).

Test system: P. falciparum K1
Experiment: Plasmodium falciparum in vitro assay ([3H] hypoxanthine incorporation)
Format: cell-based
Settings: Plasmodium falciparum; erythrocytic stages, strain K1 resistant to chloroquine and pyrimethamine, human red cells; read-out: IC50 (nM) on K1
Description: In vitro antimalarial activity: Plasmodium falciparum in vitro assay In vitro activity against erythrocytic stages of P. falciparum is determined using a [^3H] hypoxanthine incorporation assay. One strain resistant to chloroquine and pyrimethamine (P. falciparum K1) is used in the assays, and all test compounds are compared for activity with the standard drugs chloroquine (sigma C6628) and artemisinin (sigma-36, 159-3). Compounds are diluted in DMSO to 1 mM and added to parasite cultures incubated in RPMI 1640 medium without hypoxanthine, supplemented with HEPES (5.94 g/L), NaHCO3 (2.1 g/L), neomycin (100 U/mL), Albumax (5 g/L) and washed human red cells at 2.5% hematocrit (0.3% parasitaemia). Seven serial doubling dilutions of each drug are prepared in 96-well microtitre plates and incubated in a humidifying atmosphere at 37° C.; 4% CO2, 3% O2, 93% N2.
After 48 h, 50 μl of [^3H] hypoxanthine (0.5 μCi) is added to each well of a plate. The plates are incubated for a further 24 h under the same conditions. The plates are then harvested with a Betaplate cell harvester (Wallac) and washed with distilled water. The dried filters are inserted into a plastic foil with 10 mL of scintillation fluid, and counted in a Betaplate liquid scintillation counter. IC50 values are calculated from sigmoidal inhibition curves using Microsoft Excel.

Q: `Cc1noc(C)c1C=CC(=O)N(Cc1ccc(-c2ccncc2)cc1)[C@@H](Cc1ccccc1)C(=O)N1CCc2ccccc2C1` [Example 241, (S)—N-[1-Benzyl-2-(3,4-dihydro-1H-isoquinolin-2-yl)-2-oxo-ethyl]-3-(3,5-dimethyl-isoxazol-4-yl)-N-(4-pyridin-4-yl-benzyl)-acrylamide] was tested. Which IC50 did it give?
A: 5 nM

Q: With `Cc1ccc(C=CC(=O)N(Cc2ccc(-c3ccccn3)cc2)[C@@H](Cc2ccccc2)C(=O)N2CCc3ccccc3C2)cn1` [Example 59, (S)—N-[1-Benzyl-2-(3,4-dihydro-1H-isoquinolin-2-yl)-2-oxo-ethyl]-3-(6-methyl-pyridin-3-yl)-N-(4-pyridin-2-yl-benzyl)-acrylamide] as the compound, how does the IC50 read?
A: 14 nM

Q: How did the IC50 turn out when `O=C([C@H](Cc1ccccc1)N(Cc1ccc(-c2ccccn2)cc1)C(=O)/C=C/c1ccc(C(F)(F)F)cc1)N1CCc2ccccc2C1` [Example 1, (S)—N-[1-Benzyl-2-(3,4-dihydro-1H-isoquinolin-2-yl)-2-oxo-ethyl]-N-(4-pyridin-2-yl-benzyl)-3-(trifluoromethyl-phenyl)-acrylamide] was run?
A: 3.5 nM

Q: For `O=C([C@H](Cc1ccccc1)N(Cc1ccc(-c2nccs2)cc1)C(=O)C=Cc1ccc(C(F)(F)F)cc1)N1CCc2ccccc2C1` [Example 199, (S)—N-[1-Benzyl-2-(3,4-dihydro-1H-isoquinolin-2-yl)-2-oxo-ethyl]-N-(4-thiazol-2-yl-benzyl)-3-(4-trifluoromethyl-phenyl)-acrylamide], which IC50 is on record?
A: 4 nM

Q: For `Cn1cc(C=CC(=O)N(Cc2ccc(-n3cncn3)cc2)[C@@H](Cc2ccccc2)C(=O)N2CCc3ccccc3C2)cn1` [Example 172, (S)—N-[1-Benzyl-2-(3,4-dihydro-1H-isoquinolin-2-yl)-2-oxo-ethyl]-3-(1-methyl-1H-pyrazol-4-yl)-N-(4-[1,2,4]-triazol-1-yl-benzyl)-acrylamide], which IC50 is on record?
A: 25 nM

Q: `COc1ccc(C=CC(=O)N(Cc2ccc(-c3ccncc3)cc2)[C@@H](Cc2ccccc2)C(=O)N2CCc3ccccc3C2)nn1` [Example 239, (S)—N-[1-Benzyl-2-(3,4-dihydro-1H-isoquinolin-2-yl)-2-oxo-ethyl]-3-(6-methoxy-pyridazin-3-yl)-N-(4-pyridin-4-yl-benzyl)-acrylamide] was tested. Which IC50 did it give?
A: 9 nM

Q: How did the IC50 turn out when `Cn1cc(CC(C(=O)N2CCc3ccccc3C2)N(Cc2ccc(-c3ccncc3)cc2)C(=O)C=Cc2ccc(C(F)(F)F)cc2)cn1` (racemic) [Example 80, rac-N-[2-(3,4-Dihydro-1H-isoquinolin-2-yl)-1-(1-methyl-1H-pyrazol-4-ylmethyl)-2-oxo-ethyl]-N-(4-pyridin-4-yl-benzyl)-3-(4-trifluoromethyl-phenyl)-acrylamide] was run?
A: 107 nM

Q: `Cc1nc(C)c(C=CC(=O)N(Cc2ccc(-c3cccnn3)cc2)[C@@H](Cc2ccccc2)C(=O)N2CCc3ccccc3C2)s1` [Example 145, (S)—N-[1-Benzyl-2-(3,4-dihydro-1H-isoquinolin-2-yl)-2-oxo-ethyl]-3-(2,4-dimethyl-thiazol-5-yl)-N-(4-pyridazin-3-yl-benzyl)-acrylamide] was tested. Which IC50 did it give?
A: 13 nM

Q: How did the IC50 turn out when `COc1ncc(C=CC(=O)N(Cc2ccc(-c3cnccn3)cc2)[C@@H](Cc2ccccc2)C(=O)N2CCc3ccccc3C2)cn1` [Example 114, (S)—N-[1-Benzyl-2-(3,4-dihydro-1H-isoquinolin-2-yl)-2-oxo-ethyl]-3-(2-methoxy-pyrimidin-5-yl)-N-(4-pyrazin-2-yl-benzyl)-acrylamide] was run?
A: 63 nM

Q: For `Cc1c(C=CC(=O)N(Cc2ccc(-c3ncccn3)cc2)[C@@H](Cc2ccccc2)C(=O)N2CCc3ccccc3C2)cnn1C` [Example 99, (S)—N-[1-Benzyl-2-(3,4-dihydro-1H-isoquinolin-2-yl)-2-oxo-ethyl]-3-(1,5-dimethyl-1H-pyrazol-4-yl)-N-(4-pyrimidin-2-yl-benzyl)-acrylamide], which IC50 is on record?
A: 29 nM

Q: With `O=C([C@H](Cc1ccccc1)N(Cc1ccc(-c2cnccn2)cc1)C(=O)C=Cc1ccc(Cl)nc1)N1CCc2ccccc2C1` [Example 111, (S)—N-[1-Benzyl-2-(3,4-dihydro-1H-isoquinolin-2-yl)-2-oxo-ethyl]-3-(6-chloro-pyridin-3-yl)-N-(4-pyrazin-2-yl-benzyl)-acrylamide] as the compound, how does the IC50 read?
A: 35 nM
